Data reported in patent US10865196B2, “Compounds for treatment of cancer” (University of Tennessee Research Foundation, priority 2008, dated 2020).
Read-outs that look alike come from different tables or passages of the source.

Experiments:
[1] = tested on: PC-3; assay: apoptosis, cytoplasmic DNA-histone complexes, PC-3; assay type: cell-based, human; conditions: 0.8 to 600 nmol/L, 24 h
[2] = pharmacokinetic study in ICR mice; conditions: mouse, PO 20 mg/kg vs IV 10 mg/kg
[3] = pharmacokinetic study in beagle dogs; conditions: dog, PO 5 mg/kg vs IV 2 mg/kg
[4] = tested on: PC3; assay: cell growth inhibition SRB, PC3 (vascular study); assay type: cell-based; conditions: Homo sapiens, PC-3, N = 3, Table 14
Excerpt: (§1) Cell growth inhibition studies. […] Cells were stained with sulphorhodamine B (SRB) solution.

[5] = tested on: HUVEC; assay: endothelial cell growth inhibition SRB, HUVEC; assay type: cell-based, human; conditions: Homo sapiens, HUVEC; SRB, N = 3, growth factor-supplemented endothelial cells
[6] = tested on: PC-3/TxR; assay: apoptosis, cytoplasmic DNA-histone complexes, PC-3/TxR; assay type: cell-based, human; conditions: 0.8 to 600 nmol/L, 24 h
[7] = tested on: prostate cancer cells (LNCaP, PC-3, DU-145, PPC-1); assay: SRB assay, prostate cancer cells; assay type: cell-based, human; conditions: Homo sapiens, range over prostate cancer cell lines; read-out: IC50 values against prostate cancer cells
[8] = tested on: PPC-1; assay: SRB antiproliferation assay, PPC-1 prostate cancer; conditions: read-out: Cytotoxicity IC50 mean ± SD, PPC-1; 96 h treatment, N = 3
[9] = molecular target: T1, Porcine brain tubulin (Sus scrofa, UniProt P02550+P02554); assay type: biochemical; conditions: 5 μM, at 15 min
T1 construct: […]; purchased Cytoskeleton, Denver, Colo; host or cells: porcine brain

[10] = tested on: T47D; assay: cell growth inhibition SRB, T47D; assay type: cell-based; conditions: Homo sapiens, N = 3, Table 14
Excerpt: as §1

[11] = tested on: DU 145; assay: SRB antiproliferation assay, DU 145 prostate cancer; conditions: read-out: Cytotoxicity IC50 mean ± SD, Du-145; 96 h treatment, N = 3
[12] = tested on: LNCaP; assay: SRB antiproliferation assay, LNCaP prostate cancer; conditions: read-out: Cytotoxicity IC50 mean ± SD, LNCaP; 96 h treatment, N = 3
[13] = tested on: confluent HUVEC monolayers; assay: endothelial monolayer permeability assay; assay type: cell-based, human; conditions: leakage of FITC-dextran (MW 40,000) after 1, 2 and 4 h
Excerpt: Endothelial monolayer permeability assay.

[14] = pharmacokinetic study in Sprague-Dawley rats; conditions: rat
[15] = tested on: PC-3; assay: SRB antiproliferation assay, PC-3 prostate cancer; conditions: human, PC-3 cells, 96 h
[16] = tested on: colchicine-binding site on tubulin; assay: competitive mass binding assay, colchicine-tubulin binding; conditions: tubulin 1 mg/mL
[17] = tested on: CaCO-2; assay: permeability, CaCO-2 assay; conditions: mean of duplicate studies
[18] = tested on: PC-3/TxR tumors; conditions: for Tumor size End: mouse, in vivo, po

In the case of `COc1cc(C(=O)c2csc(Nc3ccc4[nH]ccc4c3)n2)cc(OC)c1OC` [compound 55, (2-(1H-indol-5-ylamino)thiazol-4-yl)(3,4,5-trimethoxyphenyl)methanone], the “induction of cell apoptosis in PC-3” value [1] is reported as “equally potent”, the F [2] is reported as 34% and the F [3] is reported as 36%. The IC50 [4] was 23.3 nM, the IC50 [5] was 9.7 nM and the “induction of cell apoptosis in PC-3/TxR” value [6] was “equally potent”. For the same molecule, the IC50 [7] was 7.5 to 24.1 nM, the IC50 [8] was 36 ± 0.4 nM and the “inhibition of tubulin polymerization” value [9] was 40%. For the same molecule, the IC50 [10] was 37.4 nM, the IC50 [11] was 38 ± 0.6 nM and the IC50 [12] was 27 ± 0.6 nM. For the same molecule, the “permeability of endothelial cell monolayer” value [13] was “increased permeability”, the AUC ([14]; IV 5 mg/kg) was 509 ± 73 µg·min/mL and the Vss ([14]; IV 5 mg/kg) was 1.0 ± 0.1 L/kg. The AUC ([14]; PO 10 mg/kg) was 246 ± 163 µg·min/mL, the F ([14]; PO 10 mg/kg vs IV 5 mg/kg) was 24% and the IC50 [15] was 16.5 ± 1.5 nM. For the same molecule, the “competition with colchicine for tubulin binding” value [16] was “competed effectively with colchicine for tubulin binding”, the “Permeability Papp(A→B) in CaCO-2 assay” value [17] was 99 10^−6 cm/s and the “Body weight End” value ([18]; PC-3/TxR xenograft, PO 10 mpk b.i.d × 5/w, day 26, start 29 ± 2) was 26 ± 3 g. The TGI ([18]; PC-3/TxR xenograft, PO 30 mpk b.i.d × 5/w, day 26, 30 mg/kg) was over 100%, the “Body weight End” value ([18]; PC-3/TxR xenograft, PO 30 mpk b.i.d × 5/w, day 26, start 29 ± 3) was 30 ± 2 g and the “Tumor size End” value ([18]; 10 mg/kg) was 1152 ± 433 mm^3. For the same molecule, the “Tumor size End” value ([18]; 30 mg/kg) was 101 ± 19 mm^3.
